Assays:
Experiment in all cases: Test C pre/postemergence
Format in all cases: in vivo
[1] = test system: common (oilseed) sunflower (Helianthus annuus); conditions: Preemergence
In short: (§1)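 Greenhouse herbicide screen, visual readout. Compound in solvent/surfactant applied preemergence at planting or postemergence to 1- to 4-leaf plants; assessed at 12–14 days on a 0–100 control scale.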

[2] = test system: bermudagrass (Cynodon dactylon)
In short: as §1

kochia (Kochia scoparia) = conditions: for Kochia plant response rating: scale 0 to 100 (0 no effect, 100 complete control)
In short: as §1

soybean (Glycine max) = conditions: for Soybean plant response rating: scale 0 to 100 (0 no effect, 100 complete control)
In short: as §1

[3] = test system: morningglory (Ipomoea coccinea); conditions: for Morningglory plant response rating: scale 0 to 100 (0 no effect, 100 complete control)
In short: as §1

[4] = test system: johnsongrass (Sorghum halepense); conditions: for Johnsongrass plant response rating: scale 0 to 100 (0 no effect, 100 complete control)
In short: as §1

[5] = test system: goosegrass (Eleusine indica); conditions: for Goosegrass plant response rating: scale 0 to 100 (0 no effect, 100 complete control)
In short: as §1

[6] = test system: woolly cupgrass (Eriochloa villosa); conditions: for Cupgrass, Woolly plant response rating: scale 0 to 100 (0 no effect, 100 complete control)
In short: as §1

[7] = test system: crabgrass (Digitaria sanguinalis); conditions: for Crabgrass plant response rating: scale 0 to 100 (0 no effect, 100 complete control)
In short: as §1

[8] = test system: Surinam grass (Brachiaria decumbens); conditions: for Surinam Grass plant response rating: scale 0 to 100 (0 no effect, 100 complete control)
In short: as §1

[9] = test system: pigweed (Amaranthus retroflexus); conditions: for Pigweed plant response rating: scale 0 to 100 (0 no effect, 100 complete control)
In short: as §1

[10] = test system: giant foxtail (Setaria faberii); conditions: for Foxtail, Giant plant response rating: scale 0 to 100 (0 no effect, 100 complete control)
In short: as §1

[11] = Postemergence, 250 g ai/ha, scale 0 to 100
[12] = Postemergence, 500 g ai/ha, scale 0 to 100
[13] = Preemergence, 62 g ai/ha, scale 0 to 100, 0 no effect, 100 complete control
[14] = Preemergence, 125 g ai/ha, scale 0 to 100
[15] = Preemergence, 250 g ai/ha, scale 0 to 100
[16] = Preemergence, 500 g ai/ha, scale 0 to 100

CCCOC(=O)c1nc(C2CC2)nc(N)c1Br [Compound 15]
Plant response rating, Sunflower ([1]; 62 g ai/ha, scale 0 to 100, 0 no effect, 100 complete control): 65 | Plant response rating, Sunflower ([1]; 125 g ai/ha, scale 0 to 100): 100 | Plant response rating, Sunflower ([1]; 250 g ai/ha, scale 0 to 100): 100 | Plant response rating, Sunflower ([1]; 500 g ai/ha, scale 0 to 100): 100 | Bermudagrass plant response rating ([2]; Postemergence, 62 g ai/ha, scale 0 to 100 (0 no effect, 100 complete control)): 0 | Plant response rating, Bermudagrass [2, 11]: 65 | Plant response rating, Bermudagrass [2, 12]: 75 | Plant response rating, Bermudagrass ([2]; Postemergence, 125 g ai/ha, scale 0 to 100): 45 | Plant response rating, Bermudagrass [2, 13]: 0 | Plant response rating, Bermudagrass [2, 14]: 0 | Plant response rating, Bermudagrass [2, 15]: 0 | Plant response rating, Bermudagrass [2, 16]: 70 | Kochia plant response rating (kochia (Kochia scoparia); Postemergence, 62 g ai/ha): 95 | Kochia plant response rating (kochia (Kochia scoparia); Postemergence, 125 g ai/ha): 95 | Plant response rating, Kochia (kochia (Kochia scoparia); [11]): 100 | Plant response rating, Kochia (kochia (Kochia scoparia); [12]): 100 | Plant response rating, Kochia (kochia (Kochia scoparia); [13]): 95 | Plant response rating, Kochia (kochia (Kochia scoparia); [14]): 100 | Plant response rating, Kochia (kochia (Kochia scoparia); [15]): 100 | Plant response rating, Kochia (kochia (Kochia scoparia); [16]): 100 | Soybean plant response rating (soybean (Glycine max); Postemergence, 62 g ai/ha): 95 | Soybean plant response rating (soybean (Glycine max); Postemergence, 125 g ai/ha): 95 | Plant response rating, Soybean (soybean (Glycine max); [11]): 95 | Plant response rating, Soybean (soybean (Glycine max); [12]): 100 | Plant response rating, Soybean (soybean (Glycine max); [13]): 75 | Plant response rating, Soybean (soybean (Glycine max); [14]): 90 | Plant response rating, Soybean (soybean (Glycine max); [15]): 95 | Plant response rating, Soybean (soybean (Glycine max); [16]): 100 | Morningglory plant response rating ([3]; Postemergence, 62 g ai/ha): 90 | Morningglory plant response rating ([3]; Postemergence, 125 g ai/ha): 95 | Plant response rating, Morningglory [3, 11]: 100 | Plant response rating, Morningglory [3, 12]: 100 | Plant response rating, Morningglory [3, 13]: 95 | Plant response rating, Morningglory [3, 14]: 100 | Plant response rating, Morningglory [3, 15]: 100 | Plant response rating, Morningglory [3, 16]: 100 | Johnsongrass plant response rating ([4]; Postemergence, 62 g ai/ha): 20 | Johnsongrass plant response rating ([4]; Postemergence, 125 g ai/ha): 55 | Plant response rating, Johnsongrass [4, 11]: 70 | Plant response rating, Johnsongrass [4, 12]: 80 | Plant response rating, Johnsongrass [4, 13]: 20 | Plant response rating, Johnsongrass [4, 14]: 65 | Plant response rating, Johnsongrass [4, 15]: 75 | Plant response rating, Johnsongrass [4, 16]: 95 | Goosegrass plant response rating ([5]; Postemergence, 62 g ai/ha): 0 | Goosegrass plant response rating ([5]; Postemergence, 125 g ai/ha): 0 | Plant response rating, Goosegrass [5, 11]: 40 | Plant response rating, Goosegrass [5, 12]: 55 | Plant response rating, Goosegrass [5, 13]: 0 | Plant response rating, Goosegrass [5, 14]: 0 | Plant response rating, Goosegrass [5, 15]: 0 | Plant response rating, Goosegrass [5, 16]: 0 | Cupgrass, Woolly plant response rating ([6]; Postemergence, 62 g ai/ha): 0 | Cupgrass, Woolly plant response rating ([6]; Postemergence, 125 g ai/ha): 50 | Plant response rating, Cupgrass, Woolly [6, 11]: 65 | Plant response rating, Cupgrass, Woolly [6, 12]: 75 | Plant response rating, Cupgrass, Woolly [6, 13]: 0 | Plant response rating, Cupgrass, Woolly [6, 14]: 20 | Plant response rating, Cupgrass, Woolly [6, 15]: 85 | Plant response rating, Cupgrass, Woolly [6, 16]: 95 | Crabgrass plant response rating ([7]; Postemergence, 62 g ai/ha): 15 | Crabgrass plant response rating ([7]; Postemergence, 125 g ai/ha): 45 | Plant response rating, Crabgrass [7, 11]: 65 | Plant response rating, Crabgrass [7, 12]: 80 | Plant response rating, Crabgrass [7, 13]: 0 | Plant response rating, Crabgrass [7, 14]: 95 | Plant response rating, Crabgrass [7, 15]: 95 | Plant response rating, Crabgrass [7, 16]: 100 | Surinam Grass plant response rating ([8]; Postemergence, 62 g ai/ha): 0 | Surinam Grass plant response rating ([8]; Postemergence, 125 g ai/ha): 20 | Plant response rating, Surinam Grass [8, 11]: 55 | Plant response rating, Surinam Grass [8, 12]: 65 | Plant response rating, Surinam Grass [8, 13]: 15 | Plant response rating, Surinam Grass [8, 14]: 65 | Plant response rating, Surinam Grass [8, 15]: 75 | Plant response rating, Surinam Grass [8, 16]: 95 | Pigweed plant response rating ([9]; Postemergence, 62 g ai/ha): 65 | Pigweed plant response rating ([9]; Postemergence, 125 g ai/ha): 70 | Plant response rating, Pigweed [9, 11]: 85 | Plant response rating, Pigweed [9, 12]: 100 | Plant response rating, Pigweed [9, 13]: 90 | Plant response rating, Pigweed [9, 14]: 100 | Plant response rating, Pigweed [9, 15]: 100 | Plant response rating, Pigweed [9, 16]: 100 | Foxtail, Giant plant response rating ([10]; Postemergence, 62 g ai/ha): 45 | Foxtail, Giant plant response rating ([10]; Postemergence, 125 g ai/ha): 60 | Plant response rating, Foxtail, Giant [10, 11]: 65 | Plant response rating, Foxtail, Giant [10, 12]: 70 | Plant response rating, Foxtail, Giant [10, 13]: 0 | Plant response rating, Foxtail, Giant [10, 14]: 0 | Plant response rating, Foxtail, Giant [10, 15]: 65 | Plant response rating, Foxtail, Giant [10, 16]: 80

From US8802597B2, “Herbicidal pyrimidines” (E I du Pont de Nemours and Company, priority 2003, dated 2014)
